Like-named read-outs stand apart in the source and are kept apart here. Values belong to the molecule of their own block, whether it stands above or below them.
Experiments:
[1] = Aqueous solubility; format: physicochemical
[2] = cited from earlier work
[3] = Oxygen sensitivity of the reduced state (bubbling with air for 10 minutes); format: physicochemical
[4] = Cyclic voltammetry in 0.5 M NaCl; format: physicochemical
Protocol: Cyclic voltammetry was further used to characterize [(NPr)2TTz]Cl4.r All cyclic voltammetry experiments were conducted in an N2 purged 0.5 M NaCl aqueous solution with a Gamry 1000E potentiostat. A 3 mm PEEK encased glassy carbon disk was used as the working electrode. The working electrode was polished with 0.05 micron Al2O3 powder and rinsed with deionized H2O. A glassy carbon rod was used as the counter electrode. A silver wire coated with AgCl and suspended in 3.0 M KCl electrolyte was used as the reference electrode. The two redox peaks of [(NPr)2TTz]Cl4 were distinguished by peak fitting of its CV curve in the Origin program after removing background current.

[5] = Linear sweep voltammetry with rotating disk electrode (Levich plot); format: physicochemical; settings: 1.0 mM in 0.5 M NaCl, Levich equation
Protocol: Linear sweep voltammetry (LSV) experiments were conducted using a Gamry 1000E potentiostat with a three-electrode system. A 5 mm diameter rotating glassy carbon disk encased in Teflon served as the working electrode. A glassy carbon rod was used as the counter electrode. An Ag/AgCl wire served as the reference electrode. The working electrode was cleaned using the same method as in the CV experiments. During the experiments, the working electrode rotated from 300 rpm to 2400 rpm at increments of 300 rpm. Three scans at each rotation rate were collected to ensure accuracy. LSV scans were conducted at a rate of 5 mV/s from 0.2 V to 0.8 V versus NHE.

[6] = Electron transfer rate constant by Nicholson's method; format: physicochemical
Protocol: The electron transfer rate constants (k^0) for the electron transfers of [([…]]^3+ were estimated. Following the well-known Nicholson's method (R. S. Nicholson, Anal. Chem. 1965, 37, 1351-1355.), a solution containing 4.0 mM [(NPr)2TTz]Cl4 with 0.5 M NaCl was used to record CV curves (FIG. 6A and FIG. 6B). The peak-to-peak separation (reduction and oxidation peak potential gap), ΔEp, was obtained and used to calculate the kinetic parameter, Ψ, using Equation 2. And then, k^0 was calculated from equation 3 based on the relationship between Ψ and ν^-1/2. Ψ=(-0.6288+0.0021ΔEp)/(1-0.017ΔEp) (Equation 2) Ψ=k^0[πDnF/RT]^-1/2ν^-1/2 (Equation 3) where F, D, and n are defined in Equation 1, R=8.314, and ν represents the scan rate.

[7] = 500 mV/s scan rate, 4.0 mM in 0.5 M NaCl

Molecule: C[n+]1ccc(-c2nc3sc(-c4cc[n+](C)cc4)nc3s2)cc1.[Cl-].[Cl-] [(Me2TTz)Cl2, N,N′-dimethyl 2,5-bis(4-pyridinium)thiazolo[5,4-d]thiazole Dichloride]
- water solubility ([1]; in water): < 10 mm

Molecule: C[n+]1ccc(-c2cc[n+](C)cc2)cc1 [Methyl viologen]
- air sensitivity of reduced states ([2]; MV^+ and MV^0): highly air sensitive
- solubility of charge-neutral state in aqueous solution ([2]; aqueous solution): insolubility

Molecule: N, N, N, 2, 2, 6, 6-Heptamethylpiperidinyloxy-4-ammonium Chloride [N^Me-TEMPO, reference compound]
- single-electron oxidation potential ([4]; neutral NaCl solution): +1.0 V (vs. NHE)

The next lines start with results.

- oxygen sensitivity of the two-electron reduced state [3]: no change in color
Molecule: C[N+](C)(C)CCCN1C=CC(=c2nc3sc(=C4C=CN(CCC[N+](C)(C)C)C=C4)nc3s2)C=C1.[Cl-].[Cl-] [[(NPr)2TTz]Cl2, 3,3′-(thiazolo[5,4-d]thiazole-2,5-diylidenebis(pyridin-1(4H)-yl-4(4H)-ylidene))bis(N,N,N-trimethylpropan-1-aminium) Dichloride]

- E1/2 of 1st electron reduction ([(NPr)2TTz]^4+/3+) ([4]; 4.0 mM in 0.5 M NaCl): −0.38 V vs. NHE
- E1/2 of 2nd electron reduction ([(NPr)2TTz]^3+/2+) ([4]; 4.0 mM in 0.5 M NaCl): −0.50 V vs. NHE
- average redox potential of the two single-electron reductions ([4]; neutral NaCl solution): -0.44 V
- average diffusion coefficient (D) for [(NPr)2TTz]^4+ and [(NPr)2TTz]^3+ [5]: 3.15×10^−6 cm^2 s^−1
- peak-to-peak separation ΔEp, 1st electron reduction [6, 7]: 53 mV
- peak-to-peak separation ΔEp, 2nd electron reduction [6, 7]: 58 mV
- solubility ([1]; 2.0 m NaCl aqueous solution, saline or isotonic, in 2.0 m NaCl, read-out: solubility in 2.0 m NaCl): 1100 mM
- charge capacity corresponding to solubility ([1]; in 2.0 m NaCl): 60.0 Ah L^−1
- charge capacity corresponding to solubility ([1]; in H2O): 69.7 Ah L^−1
- solubility ([1]; water, in H2O, read-out: solubility in water): 1300 mM
Molecule: C[N+](C)(C)CCC[n+]1ccc(-c2nc3sc(-c4cc[n+](CCC[N+](C)(C)C)cc4)nc3s2)cc1.[Cl-].[Cl-].[Cl-].[Cl-] [[(NPr)2TTz]Cl4, 4,4′-(thiazolo[5,4-d]thiazole-2,5-diyl)bis(1-(3-(trimethylammonio)propyl)pyridin-1-ium) tetrachloride]
- electron transfer rate constant k^0, both single-electron reductions ([6]; lower limit, Ψ=20, 500 mV/s): greater than 0.28 cm/s

Reference: US11271238B2, “Applications of low-cost, thermal and electrochemically stable organic compounds as high performance redox active materials in redox flow batteries” (Utah State University, priority 2018, dated 2022)
